The target in experiment [1] is unphosphorylated c-FMS kinase (uFMS, Seq. ID no. 1) (Homo sapiens (Human), UniProt P07333). In words: uFMS kinase assay (ADP production coupled to pyruvate kinase/lactate dehydrogenase). Type of experiment: biochemical. The note with it: enzymatic assay, ATP 500 μM; read-out: uFMS. In short, it runs like this:
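Unphosphorylated FMS (10 nM) with polyE4Y 1 mg/mL and 500 μM ATP in 90 mM Tris pH 7.5, 10 mM MgCl2, 0.2% octyl-glucoside, 1% DMSO. ADP formation was coupled via pyruvate kinase/LDH to NADH oxidation, followed at A340 for 4 h at 30° C.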

The target of experiment [2] is unphosphorylated c-KIT kinase (uKIT, Seq. ID no. 2) (Homo sapiens (Human), UniProt P10721). Description: uKit kinase assay (coupled pyruvate kinase/lactate dehydrogenase). Type of experiment: biochemical. The note with it: enzymatic assay, ATP 2000 μM. The procedure, abridged:
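The read-out was a continuous PK/LDH-coupled decrease in NADH absorbance at 340 nm, monitored at 30 °C over 4 h. IC50 came from % inhibition based on rates at 3–4 h. The GST-tagged unphosphorylated KIT (12 nM) was used with polyE4Y substrate, 2000 μM ATP and 10 mM Mg2+ at pH 7.5, with serially diluted compound.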

A value given as a limit tells only on which side of the number the result lay.

unphosphorylated c-KIT kinase (uKIT, Seq. ID no. 2), sequence (P10721 other isoform, or with tags, fused parts or gaps): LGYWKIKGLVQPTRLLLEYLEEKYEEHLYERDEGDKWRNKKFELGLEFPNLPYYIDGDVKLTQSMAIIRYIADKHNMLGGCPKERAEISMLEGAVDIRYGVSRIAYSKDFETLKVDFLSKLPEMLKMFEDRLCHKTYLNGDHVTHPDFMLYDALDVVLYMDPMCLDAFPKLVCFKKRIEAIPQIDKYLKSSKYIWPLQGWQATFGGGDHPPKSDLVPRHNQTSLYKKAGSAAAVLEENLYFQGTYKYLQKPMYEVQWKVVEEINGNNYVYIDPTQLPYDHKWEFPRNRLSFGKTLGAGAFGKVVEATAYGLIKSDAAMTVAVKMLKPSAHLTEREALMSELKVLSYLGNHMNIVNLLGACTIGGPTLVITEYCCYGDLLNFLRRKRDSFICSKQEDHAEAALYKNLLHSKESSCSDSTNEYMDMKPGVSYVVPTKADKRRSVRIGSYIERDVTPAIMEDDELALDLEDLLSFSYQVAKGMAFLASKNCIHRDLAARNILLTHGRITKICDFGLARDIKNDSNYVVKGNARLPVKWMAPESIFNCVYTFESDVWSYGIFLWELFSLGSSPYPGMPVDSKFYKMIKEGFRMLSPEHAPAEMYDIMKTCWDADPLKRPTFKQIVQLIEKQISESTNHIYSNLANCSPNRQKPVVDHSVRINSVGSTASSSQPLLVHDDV
unphosphorylated c-FMS kinase (uFMS, Seq. ID no. 1), sequence (P07333 538-972): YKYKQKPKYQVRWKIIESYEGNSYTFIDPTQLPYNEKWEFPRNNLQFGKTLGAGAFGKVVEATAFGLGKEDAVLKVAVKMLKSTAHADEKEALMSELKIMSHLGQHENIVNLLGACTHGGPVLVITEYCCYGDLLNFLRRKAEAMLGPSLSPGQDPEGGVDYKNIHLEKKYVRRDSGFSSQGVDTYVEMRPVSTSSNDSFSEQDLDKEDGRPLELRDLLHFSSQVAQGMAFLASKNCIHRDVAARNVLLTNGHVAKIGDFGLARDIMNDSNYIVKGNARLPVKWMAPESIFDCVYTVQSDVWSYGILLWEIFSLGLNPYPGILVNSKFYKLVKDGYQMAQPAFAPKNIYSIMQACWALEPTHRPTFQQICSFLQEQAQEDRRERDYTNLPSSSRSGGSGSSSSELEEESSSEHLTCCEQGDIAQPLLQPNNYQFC

Turning to `Cn1cc(-c2cc(Oc3ccc(NC(=O)N4CCN(C5CCOC5)C4=O)nc3)ccn2)cn1` (stereo in doubt) [Example 12, (S)—N-(5-((2-(1-methyl-1H-pyrazol-4-yl)pyridin-4-yl)oxy)pyridin-2-yl)-2-oxo-3-(tetrahydrofuran-3-yl)imidazolidine-1-carboxamide], the IC50 in experiment [1] and in experiment [2] was 10 to 100 nM throughout.

Turning to `Cc1nc(NC(=O)N2CCN(C3CCOCC3)C2=O)ccc1Oc1ccnc(-c2cnn(C)c2)c1` [Example 3, N-(6-methyl-5-((2-(1-methyl-1H-pyrazol-4-yl)pyridin-4-yl)oxy)pyridin-2-yl)-2-oxo-3-(tetrahydro-2H-pyran-4-yl)imidazolidine-1-carboxamide], the IC50 in experiment [1] is under 10 nM; in experiment [2] it was 100 to 1000 nM.

On to `CCn1cc(-c2cc(Oc3ccc(NC(=O)N4CCN(C5CCOCC5)C4=O)nc3)ccn2)cn1` [Example 4, N-(5-((2-(1-ethyl-1H-pyrazol-4-yl)pyridin-4-yl)oxy)pyridin-2-yl)-2-oxo-3-(tetrahydro-2H-pyran-4-yl)imidazolidine-1-carboxamide], for which the IC50 in experiment [1] and in experiment [2] was 10 to 100 nM in each case.

As to `Cc1cc(-c2cc(Oc3ccc(NC(=O)N4CCN(C5CCOCC5)C4=O)nc3)ccn2)on1` [Example 7, N-(5-((2-(3-methylisoxazol-5-yl)pyridin-4-yl)oxy)pyridin-2-yl)-2-oxo-3-(tetrahydro-2H-pyran-4-yl)imidazolidine-1-carboxamide], the IC50 in experiment [1] and in experiment [2] was 10 to 100 nM each time.

Consider `COCCN1CCN(C(=O)Nc2ccc(Oc3ccnc(-c4cnn(C)c4)c3)cn2)C1=O` [Example 10, 3-(2-methoxyethyl)-N-(5-((2-(1-methyl-11H-pyrazol-4-yl)pyridin-4-yl)oxy)pyridin-2-yl)-2-oxoimidazolidine-1-carboxamide], for which the values for the IC50 in experiment [1] and in experiment [2] were 10 to 100 nM and 100 to 1000 nM, respectively.

`COCCCN1CCN(C(=O)Nc2ccc(Oc3ccnc(-c4cnn(C)c4)c3)cn2)C1=O` [Example 11, 3-(3-methoxypropyl)-N-(5-((2-(1-methyl-1H-pyrazol-4-yl)pyridin-4-yl)oxy)pyridin-2-yl)-2-oxoimidazolidine-1-carboxamide]: the IC50 in experiment [1] and in experiment [2] was 10 to 100 nM throughout.

Turning to `COC[C@H](C)N1CCN(C(=O)Nc2ccc(Oc3ccnc(-c4cnn(C)c4)c3)cn2)C1=O` [Example 16, (S)-3-(1-methoxypropan-2-yl)-N-(5-((2-(1-methyl-11H-pyrazol-4-yl)pyridin-4-yl)oxy)pyridin-2-yl)-2-oxoimidazolidine-1-carboxamide], the IC50 in experiment [1] and in experiment [2] was under 10 nM throughout.

For `COCCCN1CCN(C(=O)Nc2ccc(Oc3ccnc(-c4cnn(C)c4)c3)c(C)n2)C1=O` [Example 19, 3-(3-methoxypropyl)-N-(6-methyl-5-((2-(1-methyl-1H-pyrazol-4-yl)pyridin-4-yl)oxy)pyridin-2-yl)-2-oxoimidazolidine-1-carboxamide], the IC50 in experiment [1] and in experiment [2] was 10 to 100 nM in each case.

With `Cc1nc(NC(=O)N2CCN(C3COC3)C2=O)ccc1Oc1ccnc(-c2cnn(C)c2)c1` [Example 20, N-(6-methyl-5-((2-(1-methyl-1H-pyrazol-4-yl)pyridin-4-yl)oxy)pyridin-2-yl)-3-(oxetan-3-yl)-2-oxoimidazolidine-1-carboxamide], the IC50 in experiment [1] was 10 to 100 nM; in experiment [2], 100 to 1000 nM.

With `Cn1cc(-c2cc(Oc3ccc(NC(=O)N4CCN(CCOC(F)(F)F)C4=O)nc3)ccn2)cn1` [Example 21, N-(5-((2-(1-methyl-1H-pyrazol-4-yl)pyridin-4-yl)oxy)pyridin-2-yl)-2-oxo-3-(2-(trifluoromethoxy)ethyl)imidazolidine-1-carboxamide], the IC50 in experiment [1] and in experiment [2] was 10 to 100 nM in each case.

On to `Cc1nc(NC(=O)N2CCN(C3CCCCC3)C2=O)ccc1Oc1ccnc(-c2cnn(C)c2)c1` [Example 22, 3-cyclohexyl-N-(6-methyl-5-((2-(1-methyl-1H-pyrazol-4-yl)pyridin-4-yl)oxy)pyridin-2-yl)-2-oxoimidazolidine-1-carboxamide], for which the IC50 in experiment [1] is under 10 nM; in experiment [2], 10 to 100 nM.

For the origin of these results see patent US9133183B2, “Imidazolidinones and analogs exhibiting anti-cancer and anti-proliferative activities” (Deciphera Pharmaceuticals, LLC, priority 2013, dated 2015).
